System in one series: not given
Test: not given
Conditions: not given
T1 sequence (P41594 21-1212): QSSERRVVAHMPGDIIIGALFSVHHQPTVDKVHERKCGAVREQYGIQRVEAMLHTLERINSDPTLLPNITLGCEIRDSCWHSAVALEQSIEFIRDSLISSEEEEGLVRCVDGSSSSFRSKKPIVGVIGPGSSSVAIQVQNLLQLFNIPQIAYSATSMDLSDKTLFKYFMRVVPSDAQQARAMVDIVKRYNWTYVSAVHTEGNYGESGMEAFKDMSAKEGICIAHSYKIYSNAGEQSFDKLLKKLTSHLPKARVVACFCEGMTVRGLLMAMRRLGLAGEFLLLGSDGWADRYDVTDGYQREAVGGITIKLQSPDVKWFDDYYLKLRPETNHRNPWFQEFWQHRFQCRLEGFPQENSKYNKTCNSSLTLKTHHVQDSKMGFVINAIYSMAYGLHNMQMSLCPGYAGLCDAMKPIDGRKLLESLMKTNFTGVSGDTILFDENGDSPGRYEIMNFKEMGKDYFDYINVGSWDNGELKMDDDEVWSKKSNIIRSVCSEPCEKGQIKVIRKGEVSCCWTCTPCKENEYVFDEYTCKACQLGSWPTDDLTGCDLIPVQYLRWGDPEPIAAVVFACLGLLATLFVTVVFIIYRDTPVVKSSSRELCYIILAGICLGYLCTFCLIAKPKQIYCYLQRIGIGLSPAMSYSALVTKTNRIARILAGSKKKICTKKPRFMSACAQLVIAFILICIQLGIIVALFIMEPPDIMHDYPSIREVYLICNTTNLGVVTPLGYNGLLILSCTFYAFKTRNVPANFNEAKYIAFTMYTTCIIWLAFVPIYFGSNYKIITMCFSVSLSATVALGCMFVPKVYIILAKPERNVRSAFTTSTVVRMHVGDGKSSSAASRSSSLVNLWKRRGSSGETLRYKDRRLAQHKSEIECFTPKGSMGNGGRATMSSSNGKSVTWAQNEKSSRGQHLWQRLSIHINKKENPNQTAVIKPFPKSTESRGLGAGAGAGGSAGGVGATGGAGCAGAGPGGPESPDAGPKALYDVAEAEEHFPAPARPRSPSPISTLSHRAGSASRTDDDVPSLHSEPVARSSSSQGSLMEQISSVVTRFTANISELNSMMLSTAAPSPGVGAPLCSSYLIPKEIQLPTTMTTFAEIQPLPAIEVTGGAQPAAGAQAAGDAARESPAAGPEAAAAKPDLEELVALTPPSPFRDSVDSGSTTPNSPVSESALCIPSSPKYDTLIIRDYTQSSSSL
On to `CN1CCOc2cc(-c3nc4c(s3)C(=O)CCC4)ccc21` [Compound 9, 2-(4-methyl-3,4-dihydro-2H-1,4-benzoxazin-7-yl)-5,6-dihydro-1,3-benzothiazol-7(4H)-one], for which the melting point was 218.1 to 220.8 °C.
Compound `O=C1c2sc(C#Cc3ccccc3)nc2CCN1Cc1ccccc1` [Compound 12, 6,7-dihydro-2-(phenylethynyl)-5-(phenylmethyl)-thiazolo[5,4-c]pyridin-4(5H)-one] yielded a melting point of 141.5 to 152.5 °C.
Same read-out and setting: then `CN1CCc2nc(C#Cc3ccccc3)sc2C1=O` [Compound 4, 6,7-dihydro-5-methyl-2-(phenylethynyl)-thiazolo[5,4-c]pyridin-4(5H)-one], with 146.1 to 147.2 °C; and `O=C1c2sc(OCc3cccnc3)nc2CCN1c1ccc(F)cc1F` [Compound 23], with 106 to 110 °C; and `O=C1c2sc(OCc3ccncc3)nc2CCN1c1ccc(F)cc1` [Compound 21], with 169.1 to 170.9 °C.
Same read-out and setting: to `COCCN1CCc2nc(C#Cc3ccccc3)sc2C1=O` [Compound 11, 6,7-dihydro-5-(2-methoxyethyl)-2-(phenylethynyl)-thiazolo[5,4-c]pyridin-4 (5H)-one] belongs 144.5 to 148.2 °C; to `O=C1CCCc2nc(C#Cc3cncc(F)c3)sc21` [Compound 2, 2-[(5-fluoro-3-pyridinyl)ethynyl]-5,6-dihydro-7(4H)-benzothiazolone], 139.2 to 141.9 °C; to `O=C1CCCc2nc(C#Cc3cccnc3)sc21` [Compound 10, 5,6-dihydro-2-(3-pyridinylethynyl)-7(4H)-benzothiazolone], 109.5 to 112 °C.
On the same count and under the same terms, to `O=C1c2sc(OCc3ccccn3)nc2CCN1c1ccc(F)cc1F` [Compound 24] belongs 98.1 to 100.1 °C; to `O=C1c2sc(NCc3ccccc3)nc2CCN1c1ccc(F)cc1` [Compound 22], 221.3 °C.
For `O=C1CCCc2nc(C#Cc3ccccc3)sc21` [Compound 1, 5,6-dihydro-2-(phenylethynyl)-7(4H)-benzothiazolone], the melting point was 117.1 to 119.9 °C.
Take `O=C1NCCc2nc(C#Cc3ccccc3)sc21` [Compound 3, 6,7-dihydro-2-(phenylethynyl)-thiazolo[5,4-c]pyridin-4(5H)-one]: the melting point is 232.1 to 235.1 °C.
The same measure, in the same setting: to `O=C1NCCCc2nc(-c3ccc(N4CCCCC4)nc3)sc21` [Compound 8] belongs 260.3 to 264 °C.

A further series has as its target T1, human mGluR5 receptor (Homo sapiens, UniProt P41594).
T1 construct: expressed in transfected cells
The experiment in a line: intracellular Ca2+ mobilization assay, potentiation of glutamate EC20 response (FDSS). The series is classed as cell-based. To be noted: HEK293; maximum % effect in concentration-response curve, relative to glutamate ECMax-treated wells; HEK-293 human mGluR5. An excerpt: The compounds provided in the present invention are positive allosteric modulators of mGluR5. These compounds appear to potentiate glutamate responses by binding to an allosteric site other than the glutamate binding site. The response of mGluR5 to a concentration of glutamate is increased when compounds of Formula (I) are present. Compounds of Formula (I) are expected to have their effect substantially at mGluR5 by virtue of their ability to enhance the function of the receptor. The behaviour of positive allosteric modulators tested at mGluR5 using the intracellular Ca^2+ mobilization binding assay method described below and which is suitable for the identification of such compounds.
In brief, the human mGluR5 receptor was stably expressed in HEK-293 cells and grown at a density of 40,000 cells/well in PDL-coated 384-well plates. Cells were preloaded with the calcium-sensing dye Fluo-4 AM and various concentrations of test compound were added in the absence of exogenous glutamate to test for direct agonist activity. Shortly (2.5 min) thereafter, an EC20 equivalent of glutamate (˜0.2 μM) was added. The fluorescence signal was monitored using a Hamamatsu Functional Drug Screening System (FDSS) fluorescence plate reader following the addition of compound alone (direct agonist response) and then the further addition of an EC20 of glutamate (positive allosteric modulation response). The pEC50 was defined as the negative log of the test compound concentration which produced an increase in the glutamate EC20-mediated response that was 50% of maximum. Individual amplitudes were expressed as % effect by multiplying each amplitude by 100 and then dividing the product by the mean of the amplitudes derived from the glutamate ECMax-treated wells. Emax values reported in this application are defined as the maximum % effect obtained in a concentration-response curve.
In general terms: A change in cytosolic calcium serves as a functional read-out for many receptors and channels.
Take `CN1CCOc2cc(-c3nc4c(s3)C(=O)CCC4)ccc21` [Compound 9, 2-(4-methyl-3,4-dihydro-2H-1,4-benzoxazin-7-yl)-5,6-dihydro-1,3-benzothiazol-7(4H)-one]: the Emax is 77%.
The same measure, in the same setting: to `O=C1c2sc(C#Cc3ccccc3)nc2CCN1Cc1ccccc1` [Compound 12, 6,7-dihydro-2-(phenylethynyl)-5-(phenylmethyl)-thiazolo[5,4-c]pyridin-4(5H)-one] belongs 90%; to `CN1CCc2nc(C#Cc3ccccc3)sc2C1=O` [Compound 4, 6,7-dihydro-5-methyl-2-(phenylethynyl)-thiazolo[5,4-c]pyridin-4(5H)-one], 79%.
Same read-out and setting: to `COCCN1CCc2nc(C#Cc3ccccc3)sc2C1=O` [Compound 11, 6,7-dihydro-5-(2-methoxyethyl)-2-(phenylethynyl)-thiazolo[5,4-c]pyridin-4 (5H)-one] belongs 64%; to `O=C1CCCc2nc(C#Cc3cncc(F)c3)sc21` [Compound 2, 2-[(5-fluoro-3-pyridinyl)ethynyl]-5,6-dihydro-7(4H)-benzothiazolone], 83%.
On the same count and under the same terms, to `O=C1CCCc2nc(C#Cc3cccnc3)sc21` [Compound 10, 5,6-dihydro-2-(3-pyridinylethynyl)-7(4H)-benzothiazolone] belongs 92%.
For the compound `O=C1CCCc2nc(CCc3ccccc3)sc21` [Compound 6, 5,6-dihydro-2-(2-phenylethyl)-7(4H)-benzothiazolone], the Emax was found to be 51%.
The same measure, in the same setting: then `O=C1CCCc2nc(C#Cc3ccccc3)sc21` [Compound 1, 5,6-dihydro-2-(phenylethynyl)-7(4H)-benzothiazolone], with 100%.
Turning to `O=C1NCCc2nc(C#Cc3ccccc3)sc21` [Compound 3, 6,7-dihydro-2-(phenylethynyl)-thiazolo[5,4-c]pyridin-4(5H)-one], the Emax was 78%.
On the same count and under the same terms, then `O=C1NCCCc2nc(-c3ccc(N4CCCCC4)nc3)sc21` [Compound 8], with 11%.

Staying with this series, now noted: human mGluR5 stably expressed in HEK-293 cells; Fluo-4 AM; increase in glutamate EC20 (~0.2 μM) response.
Turning to `CN1CCOc2cc(-c3nc4c(s3)C(=O)CCC4)ccc21` [Compound 9, 2-(4-methyl-3,4-dihydro-2H-1,4-benzoxazin-7-yl)-5,6-dihydro-1,3-benzothiazol-7(4H)-one], the EC50 is 6310 nM.
The same measure, in the same setting: to `O=C1c2sc(C#Cc3ccccc3)nc2CCN1Cc1ccccc1` [Compound 12, 6,7-dihydro-2-(phenylethynyl)-5-(phenylmethyl)-thiazolo[5,4-c]pyridin-4(5H)-one] belongs 468 nM.
Same read-out and setting: then `CN1CCc2nc(C#Cc3ccccc3)sc2C1=O` [Compound 4, 6,7-dihydro-5-methyl-2-(phenylethynyl)-thiazolo[5,4-c]pyridin-4(5H)-one], with 69.2 nM; and `COCCN1CCc2nc(C#Cc3ccccc3)sc2C1=O` [Compound 11, 6,7-dihydro-5-(2-methoxyethyl)-2-(phenylethynyl)-thiazolo[5,4-c]pyridin-4 (5H)-one], with 275 nM.
Same read-out and setting: then `O=C1CCCc2nc(C#Cc3cncc(F)c3)sc21` [Compound 2, 2-[(5-fluoro-3-pyridinyl)ethynyl]-5,6-dihydro-7(4H)-benzothiazolone], with 4270 nM; and `O=C1CCCc2nc(C#Cc3cccnc3)sc21` [Compound 10, 5,6-dihydro-2-(3-pyridinylethynyl)-7(4H)-benzothiazolone], with 1510 nM; and `O=C1CCCc2nc(CCc3ccccc3)sc21` [Compound 6, 5,6-dihydro-2-(2-phenylethyl)-7(4H)-benzothiazolone], with 18600 nM.
`O=C1CCCc2nc(C#Cc3ccccc3)sc21` [Compound 1, 5,6-dihydro-2-(phenylethynyl)-7(4H)-benzothiazolone]: the EC50 is 51.3 nM.
The same measure, in the same setting: to `O=C1NCCc2nc(C#Cc3ccccc3)sc21` [Compound 3, 6,7-dihydro-2-(phenylethynyl)-thiazolo[5,4-c]pyridin-4(5H)-one] belongs 219 nM; to `O=C1NCCCc2nc(-c3ccc(N4CCCCC4)nc3)sc21` [Compound 8], 5010 nM.

For orientation: melting point means the temperature of the solid-liquid transition. One may read the Emax as the greatest response seen or fitted, relative to the assay's reference. For orientation: EC50 means the midpoint of the concentration-response curve.

Values taken from patent US9174953B2, “Bicyclic thiazoles as allosteric modulators of mGluR5 receptors” (Janssen Pharmaceutica NV, priority 2009, dated 2015).
